Reference: the NIST ThermoML archive (doi:10.1016/j.fluid.2010.03.004)

Experiment: xn = mol fraction of the nth substance listed
Settings: Liquid, Vibrating tube method

CCCO [propan-1-ol] + O=C=O
Settings	mass density [kg/m3]
313.24 K, x2 = 0.202	807
313.24 K, x2 = 0.2572	812.6
313.24 K, x2 = 0.3141	817.6
313.24 K, x2 = 0.4054	823.3
313.24 K, x2 = 0.4405	824.4
313.24 K, x2 = 0.5256	826.3
313.24 K, x2 = 0.5773	825.7
313.24 K, x2 = 0.6774	822
313.24 K, x2 = 0.7843	786.8
363.17 K, x2 = 0.1483	752
363.17 K, x2 = 0.2294	754.9
363.17 K, x2 = 0.3137	754.8
363.17 K, x2 = 0.4007	753.6
363.17 K, x2 = 0.4863	749.7
363.17 K, x2 = 0.6808	680.6
363.17 K, x2 = 0.7308	638.5

CC(C)O [propan-2-ol] + O=C=O
Settings	mass density [kg/m3]
313.22 K, x2 = 0.1267	783.1
313.22 K, x2 = 0.2066	789.6
313.22 K, x2 = 0.3029	799.3
313.22 K, x2 = 0.3845	803.6
313.22 K, x2 = 0.4501	806.7
313.22 K, x2 = 0.554	805.4
313.22 K, x2 = 0.6472	794.9
313.22 K, x2 = 0.7539	783.1
313.22 K, x2 = 0.902	703.7
333.03 K, x2 = 0.137	761
333.03 K, x2 = 0.2077	762.7
333.03 K, x2 = 0.3001	765
333.03 K, x2 = 0.4023	767.5
333.03 K, x2 = 0.4645	768.5
333.03 K, x2 = 0.6377	770.7
333.03 K, x2 = 0.7582	771.4
333.03 K, x2 = 0.8297	771.4
348.25 K, x2 = 0.0736	741.2
348.25 K, x2 = 0.1432	743.9
348.25 K, x2 = 0.2469	746.5
348.25 K, x2 = 0.3234	748.6
348.25 K, x2 = 0.4042	750.9
348.25 K, x2 = 0.5132	752.9
348.25 K, x2 = 0.5658	753.6
348.25 K, x2 = 0.7177	745.3
348.25 K, x2 = 0.755	646.5
348.25 K, x2 = 0.8241	568
362.92 K, x2 = 0.1016	641.7
362.92 K, x2 = 0.1668	690.6
362.92 K, x2 = 0.2312	726.4
362.92 K, x2 = 0.3079	728.3
362.92 K, x2 = 0.3719	728.7
362.92 K, x2 = 0.4681	726.5
362.92 K, x2 = 0.5653	704.5
362.92 K, x2 = 0.6285	671.6
362.92 K, x2 = 0.7165	590.4
